According to patent US20260217701A1, “SELECTIVE BET INHIBITORS AND USES THEREOF” (Tay Therapeutics Limited, priority 2022, published 2026):
Where “and” joins values, the source holds several entries; their conditions need not be identical. Equal entries are not always repeated.

Experiment: Rat PK study #1 (Compound A PO, methylcellulose vs propylene glycol formulation)
Assay type: in vivo, Lewis rats
Experimental: For the first rat pharmacokinetic study, the pharmacokinetics of Compound A were assessed in male Lewis rats. Compound A was prepared in two different formulations (1% methylcellulose and 20% propylene glycol/20% Vitamin E/60% water) according to Table 3A (see Tables 2A and 2D for formulations). The formulations were made fresh prior to use. Animals were divided into two groups based on the compound formulation (n=3/group). The Compound A solutions were administered to animals orally (PO) and animals were then monitored over a 24 h period.
Blood samples (~0.2 mL) were collected according to a schedule (0.083, 0.25, 0.5, 1, 2, 4, 8, and 24 h following the initial dosing) via the jugular vein by cannulation and EDTA-K2 was used as anticoagulant. Within 30 minutes of collection, the samples were centrifuged at approximately 4000 times g-force for 5 minutes at 4° C. to obtain blood plasma. The plasma samples were immediately divided into two aliquots (~75 μL each), transferred to a cryogenic vial, and stored in a freezer at −75±15° C. prior to analysis.
The concentration of Compound A in plasma samples was determined by liquid chromatography-mass spectrometry (LC-MS/MS) using a Shimadzu HPLC (DGU-20A5R; LC-30AD; SIL-30AC; Rack changer II; CTO-31A; and CBM-20A) and an AB API 5500 LC/MS/MS instrument. Samples were analyzed on an Agilent Poroshell 120 EC-C18 4 μm (50×2.1 mm) column. Solution A in the mobile phase was 95% water (0.1% formic acid) and solution B was 95% acetonitrile in water (0.1% formic acid), injection volume was 3 μL, and flow rate was 0.6 mL/min.
To prepare samples for analysis, serial concentrations were prepared by diluting the stock solution of analyte with a 50% acetonitrile in water solution. 5 μL working solutions (5, 10, 20, 50, 100, 500, 1000, 5000, and 10000 ng/ml) were added to 50 μL of the blank Lewis rat plasma to achieve calibration standards of ~0.5 to 1000 ng/ml (0.5, 1, 2, 5, 10, 50, 100, 500, and 1000 ng/ml) in a total volume of 55 μL. Five quality control samples at 1 ng/ml, 2 ng/ml, 5 ng/mL, 50 ng/mL, and 800 ng/mL for plasma were prepared independently of those used for the calibration curves. These QC samples were prepared on the day of analysis in the same way as calibration standards.
55 μL of standards, 55 μL of QC samples and 55 μL of unknown samples (50 μL of unknown rat plasma with 5 μL of blank solution) were added to 200 μL of acetonitrile containing internal standard (IS; verapamil) mixture for precipitating protein respectively. The samples were then vortexed for 30 s. After centrifugation at 4° C., 3900 rpm for 15 min, the supernatant was diluted 3 times with water. 3 μL of diluted supernatant was injected into the LC/MS/MS system for quantitative analysis.

[1] = Lewis rats, PO 10 mg/kg, 1% methylcellulose formulation, individual animals, 10 mg/kg
[2] = Lewis rats, PO 10 mg/kg, 1% methylcellulose formulation, mean of 3 animals
[3] = Lewis rats, PO 10 mg/kg, propylene glycol/Vitamin E TPGS/water formulation, individual animals, 10 mg/kg
[4] = Lewis rats, PO 10 mg/kg, propylene glycol/Vitamin E TPGS/water formulation, mean of 3 animals

For `Cn1cc(-c2ccccc2)c(-c2cn(C)c(=O)c3[nH]c(-c4cnn(C(F)(F)F)c4)cc23)cc1=O` [Compound A, 6-methyl-4-(1-methyl-2-oxo-5-phenyl-1,2-dihydropyridin-4-yl)-2-(1-(trifluoromethyl)-1H-pyrazol-4-yl)-1,6-dihydro-7H-pyrrolo[2,3-c]pyridin-7-one], the “Plasma Concentration” value (Lewis rats, PO 10 mg/kg, 1% methylcellulose formulation, 0.083 h, individual animals) was 0.00 ng/mL, the “Plasma Concentration” value (Lewis rats, PO 10 mg/kg, 1% methylcellulose formulation, 0.083 h, mean of 3 animals) was “BLOQ” and the “Plasma Concentration” value (Lewis rats, PO 10 mg/kg, 1% methylcellulose formulation, 0.25 h, individual animals, 10 mg/kg) was 1.37 ng/mL and 0.868 ng/mL and 0.603 ng/mL. For the same compound, the “Plasma Concentration” value (Lewis rats, PO 10 mg/kg, 1% methylcellulose formulation, 0.5 h, individual animals, 10 mg/kg) was 9.07 ng/mL and 4.15 ng/mL and 2.89 ng/mL, the “Plasma Concentration” value (Lewis rats, PO 10 mg/kg, 1% methylcellulose formulation, 1 h, individual animals, 10 mg/kg) was 10.7 ng/mL and 12.2 ng/mL and the “Plasma Concentration” value (Lewis rats, PO 10 mg/kg, 1% methylcellulose formulation, 2 h, individual animals, 10 mg/kg) was 21.6 ng/mL and 22.7 ng/mL. For the same compound, the “Plasma Concentration” value (Lewis rats, PO 10 mg/kg, 1% methylcellulose formulation, 4 h, individual animals, 10 mg/kg) was 49.2 ng/mL and 43.1 ng/mL, the “Plasma Concentration” value (Lewis rats, PO 10 mg/kg, 1% methylcellulose formulation, 8 h, individual animals, 10 mg/kg) was 29.3 ng/mL and 67.3 ng/mL and 50.6 ng/mL and the “Plasma Concentration” value (Lewis rats, PO 10 mg/kg, 1% methylcellulose formulation, 24 h, individual animals, 10 mg/kg) was 0.996 ng/mL and 1.52 ng/mL and 5.80 ng/mL. The AUClast [1] was 875 ng·h/mL and 726 ng·h/mL, the AUClast/D [1] was 48.0 mg·h/mL and 87.5 mg·h/mL and 72.6 mg·h/mL and the Cmax [1] was 67.3 ng/mL and 50.6 ng/mL. For the same compound, the F [1] was 2.51% and 4.57% and 3.79%, the AUClast/D [2] was 69.4 mg·h/mL and the F [2] was 3.62%. The “Plasma Concentration” value (Lewis rats, PO 10 mg/kg, propylene glycol/Vitamin E TPGS/water formulation, 0.083 h, individual animals, 10 mg/kg) was 3.72 ng/mL and 4.36 ng/mL, the “Plasma Concentration” value (Lewis rats, PO 10 mg/kg, propylene glycol/Vitamin E TPGS/water formulation, 0.25 h, individual animals, 10 mg/kg) was 39.8 ng/mL and 47.2 ng/mL and the “Plasma Concentration” value (Lewis rats, PO 10 mg/kg, propylene glycol/Vitamin E TPGS/water formulation, 0.5 h, individual animals, 10 mg/kg) was 134 ng/mL. The “Plasma Concentration” value (Lewis rats, PO 10 mg/kg, propylene glycol/Vitamin E TPGS/water formulation, 1 h, individual animals, 10 mg/kg) was 264 ng/mL and 263 ng/mL, the “Plasma Concentration” value (Lewis rats, PO 10 mg/kg, propylene glycol/Vitamin E TPGS/water formulation, 2 h, individual animals, 10 mg/kg) was 375 ng/mL and 424 ng/mL and the “Plasma Concentration” value (Lewis rats, PO 10 mg/kg, propylene glycol/Vitamin E TPGS/water formulation, 4 h, individual animals, 10 mg/kg) was 316 ng/mL and 437 ng/mL. The “Plasma Concentration” value (Lewis rats, PO 10 mg/kg, propylene glycol/Vitamin E TPGS/water formulation, 8 h, individual animals, 10 mg/kg) was 156 ng/mL and 145 ng/mL, the “Plasma Concentration” value (Lewis rats, PO 10 mg/kg, propylene glycol/Vitamin E TPGS/water formulation, 24 h, individual animals, 10 mg/kg) was 12.6 ng/mL and 12.5 ng/mL and the AUC_%Extrap_obs (Lewis rats, PO 10 mg/kg, propylene glycol/Vitamin E TPGS/water formulation, individual animals) was 2.25%. The AUClast [3] was 3428 ng·h/mL and 3755 ng·h/mL, the Cmax [3] was 375 ng/mL and 437 ng/mL and the F [3] was 25.8% and 17.1% and 19.6%. The AUClast/D [4] was 404, the F [4] was 20.8% and the Clinical observations (both formulations, PO, 24 h) was “no recorded clinical observations”. The “plasma concentration, propylene glycol-based vs methylcellulose-based formulation” value (male Lewis rats, PO, same dose) was “approximately 10 fold”, the concentration at 0.083 h (male, Lewis, rat, plasma, po, 10 mg/kg, Lewis rats, PO 10 mg/kg, 1% methylcellulose formulation, 0.083 h, individual animals) was 0 ng/mL and the concentration at 0.25 h (male, Lewis, rat, plasma, po, 10 mg/kg, Lewis rats, PO 10 mg/kg, 1% methylcellulose formulation, 0.25 h, mean of 3 animals) was 0.95 ng/mL. For the same compound, the concentration at 0.5 h (male, Lewis, rat, plasma, po, 10 mg/kg, Lewis rats, PO 10 mg/kg, 1% methylcellulose formulation, 0.5 h, mean of 3 animals) was 5.37 ng/mL, the concentration at 1 h (male, Lewis, rat, plasma, po, 10 mg/kg, Lewis rats, PO 10 mg/kg, 1% methylcellulose formulation, 1 h, individual animals) was 17.1 ng/mL and the concentration at 1 h (male, Lewis, rat, plasma, po, 10 mg/kg, Lewis rats, PO 10 mg/kg, 1% methylcellulose formulation, 1 h, mean of 3 animals) was 13.3 ng/mL.
